The results in this text go back to patent US11021481B2, “Substituted isoindolin-1-ones and 2,3-dihydro-1h-pyrrolo[3,4-c]pyridin-1-ones as HPK1 antagonists” (Nimbus Saturn, Inc., priority 2019, dated 2021).

Chain of HPK1 (Q92918 whole entry): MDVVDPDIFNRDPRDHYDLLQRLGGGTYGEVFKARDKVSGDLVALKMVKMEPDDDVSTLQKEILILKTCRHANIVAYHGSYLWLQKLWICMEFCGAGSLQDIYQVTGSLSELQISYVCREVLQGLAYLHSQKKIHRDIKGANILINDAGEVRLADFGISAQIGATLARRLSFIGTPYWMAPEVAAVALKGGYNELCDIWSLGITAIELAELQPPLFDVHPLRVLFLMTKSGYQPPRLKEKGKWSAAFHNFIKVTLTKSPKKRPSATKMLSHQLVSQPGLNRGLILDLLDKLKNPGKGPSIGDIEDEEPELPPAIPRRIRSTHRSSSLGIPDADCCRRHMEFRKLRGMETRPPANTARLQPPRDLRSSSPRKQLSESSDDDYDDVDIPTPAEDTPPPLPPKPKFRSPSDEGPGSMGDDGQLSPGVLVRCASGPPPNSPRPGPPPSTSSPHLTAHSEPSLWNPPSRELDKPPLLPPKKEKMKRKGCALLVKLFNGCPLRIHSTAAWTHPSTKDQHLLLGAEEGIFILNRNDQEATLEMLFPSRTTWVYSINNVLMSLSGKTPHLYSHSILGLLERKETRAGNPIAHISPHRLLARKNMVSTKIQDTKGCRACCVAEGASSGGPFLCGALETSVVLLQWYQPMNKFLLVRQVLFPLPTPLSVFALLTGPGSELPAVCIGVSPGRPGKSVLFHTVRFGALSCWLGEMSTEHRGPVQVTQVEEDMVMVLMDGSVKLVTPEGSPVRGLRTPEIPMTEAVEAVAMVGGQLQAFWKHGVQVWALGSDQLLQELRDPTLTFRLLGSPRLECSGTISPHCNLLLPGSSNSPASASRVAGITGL

This assay concerns the target HPK1 (Homo sapiens (Human), UniProt Q92918). Kind of assay: HPK1 biochemical enzyme assay (microfluidic mobility shift assay). The conditions noted are these: 1.5 nM HPK1, ATP 1 mM final, 30 min preincubation, 60 min at RT, Caliper EZ Reader; read-out: HPK1 1000UMATP caliper IC50. The essentials:
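Ten-point compound titrations (top 3 μM final) preincubated 30 min with HPK1 and substrate, then reaction started with 1 mM ATP and 1 μM substrate, 5 mM MgCl2. After 60 min at RT, reaction terminated and product measured by microfluidic mobility shift.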
Broadly, the IC50 is the concentration that inhibits the measured activity by half. `O=C1NCc2c(-c3c[nH]c4ccccc34)ncc(Nc3ccc(N4CCOCC4)cn3)c21` [I-3, 4-(1H-indo1-3-yl)-7-[(5-morpholino-2-pyridyl)amino]-2,3-dihydropyrrolo [3,4-c] pyridin-1-one]: the IC50 is 100 to 1000 nM.
Consider `COc1ccc2c(-c3ncc(Nc4ccc(N5CCN(C)CC5)cn4)c4c3CNC4=O)c[nH]c2c1` [I-4, 4-(6-methoxy-1H-indol-3-yl)-7-[[5-(4-methylpiperazin-1-yl)-2-pyridyl]amino]-2,3-dihydropyrrolo [3,4-c]pyridin-1-one], for which the IC50 was in the range of 100 to 1000 nM.
The same measure for `Cc1cccc2c(-c3ncc(Nc4ccc(N5CCN(C)CC5)cn4)c4c3CNC4=O)c[nH]c12` [I-5, 4-(7-methyl-1H-indol-3-yl)-7-[[5-(4-methylpiperazin-1-yl)-2-pyridyl]amino]-2,3-dihydropyrrolo [3,4-c]pyridin-1-one]: 100 to 1000 nM; for `CN1CCN(c2ccc(Nc3cnc(-c4c[nH]c5ncccc45)c4c3C(=O)NC4)nc2)CC1` [I-6, 7-((5-(4-Methylpiperazin-1-yl)pyridin-2-yl)amino)-4-(1H-pyrrolo[2,3-b]pyridin-3-yl)-2,3-dihydro-1H-pyrrolo[3,4-c]pyridin-1-one]: below 100 nM.
For the compound `COc1cccc2c(-c3ncc(Nc4ccc(N5CCN(C)CC5)cn4)c4c3CNC4=O)c[nH]c12` [I-7, 4-(7-methoxy-1H-indol-3-yl-)-7-[[5-(4-methylpiperazin-1-yl)-2-pyridyl]amino]-2,3-dihydropyrrolo [3,4-c]pyridin-1-one], the IC50 was 100 to 1000 nM.
The same measure for `Cc1ccc2c(-c3ncc(Nc4ccc(N5CCN(C)CC5)cn4)c4c3CNC4=O)c[nH]c2c1` [I-8, 4-(6-methyl-1H-indol-3-yl)-7-[[5-(4-methylpiperazin-1-yl)-2-pyridyl]amino]-2,3-dihydropyrrolo [3,4-c]pyridin-1-one]: 100 to 1000 nM; for `COc1ccc2[nH]cc(-c3ncc(Nc4ccc(N5CCN(C)CC5)cn4)c4c3CNC4=O)c2c1` [I-9, 4-(5-methoxy-1H-indol-3-yl)-7-[[5-(4-methylpiperazin-1-yl)-2-pyridyl]amino]-2,3-dihydropyrrolo [3,4-c]pyridin-1-one]: 100 to 1000 nM.
The same measure for `O=C1NCc2c(-c3c[nH]c4ccccc34)ncc(Nc3ccc(N4CC5CCC(C4)O5)cn3)c21` [I-10, 4-(1H-indol-3-yl)-7-[[5-(8-oxa-3-azabicyclo [3.2.1]octan-3-yl)-2-pyridyl]amino]-2,3-dihydropyrrolo [3,4-c]pyridin-1-one]: above 1000 nM.
The same measure for `Cc1[nH]c2ccccc2c1-c1ncc(Nc2ccc(N3CCN(C)CC3)cn2)c2c1CNC2=O` [I-11, 4-(2-methyl-1H-indol-3-yl)-7-[[5-(4-methylpiperazin-1-yl)-2-pyridyl]amino]-2,3-dihydropyrrolo [3,4-c]pyridin-1-one]: 100 to 1000 nM; for `O=C1NCc2c(-c3c[nH]c4ccccc34)ncc(Nc3ccc(N4CCC(F)(F)CC4)cn3)c21` [I-12, 7-[[5-(4,4-difluoro-1-piperidyl)-2-pyridyl]amino]-4-(1H-indol-3-yl)-2,3-dihydropyrrolo [3,4-c]pyridin-1-one]: above 1000 nM.
For the compound `CN1CCN(c2ccc(Nc3cnc(-c4c[nH]c5ccncc45)c4c3C(=O)NC4)nc2)CC1` [I-13, 7-[[5-(4-methylpiperazin-1-yl)-2-pyridyl]amino]-4-(1H-pyrrolo[3,2-c]pyridin-3-yl)-2,3-dihydropyrrolo [3,4-c]pyridin-1-one], the half-maximal inhibitory concentration (IC50) was 100 to 1000 nM.
The same measure for `CN1CCN(c2ccc(Nc3cnc(-c4cn(C)c5ncccc45)c4c3C(=O)NC4)nc2)CC1` [I-14, 7-[[5-(4-methylpiperazin-1-yl)-2-pyridyl]amino]-4-(1-methylpyrrolo [2,3-b]pyridin-3-yl)-2,3-dihydropyrrolo [3,4-c]pyridin-1-one]: above 1000 nM; for `Cc1[nH]c2ncccc2c1-c1ncc(Nc2ccc(N3CCN(C)CC3)cn2)c2c1CNC2=O` [I-15]: 100 to 1000 nM.
Regarding `Cc1ccc2c(-c3ncc(Nc4ccc(N5CCN(C)CC5)cn4)c4c3CNC4=O)c(C)[nH]c2n1` [I-17, 4-(2,6-dimethyl-1H-pyrrolo[2,3-b]pyridin-3-yl)-7-[[5-(4-methylpiperazin-1-yl)-2-pyridyl]amino]-2,3-dihydropyrrolo [3,4-c]pyridin-1-one], the IC50 is above 1000 nM.
Take `CN1CCN(c2ccc(Nc3cnc(-c4ccnc5c4ccn5C)c4c3C(=O)NC4)nc2)CC1` [I-18, 7-[[5-(4-methylpiperazin-1-yl)-2-pyridyl]amino]-4-(1-methylpyrrolo [2,3-b]pyridin-4-yl)-2,3-dihydropyrrolo [3,4-c]pyridin-1-one]: the 50% inhibitory concentration (IC50) was below 100 nM.
As to `Cc1c[nH]c2nccc(-c3ncc(Nc4ccc(N5CCN(C)CC5)cn4)c4c3CNC4=O)c12` [I-19, 7-[[5-(4-methylpiperazin-1-yl)-2-pyridyl]amino]-4-(3-methyl-1H-pyrrolo[2,3-b]pyridin-4-yl)-2,3-dihydropyrrolo [3,4-c]pyridin-1-one], the IC50 is below 100 nM.
The figure for `CN1CCN(c2ccc(Nc3cnc(-c4ccnc5[nH]ccc45)c4c3C(=O)NC4)nc2)CC1` [I-20, 7-[[5-(4-methylpiperazin-1-yl)-2-pyridyl]amino]-4-(1H-pyrrolo[2,3-b]pyridin-4-yl)-2,3-dihydropyrrolo [3,4-c]pyridin-1-one] is below 100 nM.
`CN1CCN(c2ccc(Nc3ccc(-c4c[nH]c5ncccc45)c4c3C(=O)NC4)nc2)CC1` [I-21, 7-[[5-(4-methylpiperazin-1-yl)-2-pyridyl]amino]-4-(1H-pyrrolo[2,3-b]pyridin-3-yl)-isoindolin-1-one]: the IC50 is below 100 nM.
The figure for `CN1CCN(c2ccc(Nc3ccc(-c4cn(C)c5ncccc45)c4c3C(=O)NC4)nc2)CC1` [I-22, 7-[[5-(4-methylpiperazin-1-yl)-2-pyridyl]amino]-4-(1-methylpyrrolo [2,3-b]pyridin-3-yl)-isoindolin-1-one] is 100 to 1000 nM; for `Cc1ccc2c(-c3ccc(Nc4ccc(N5CCN(C)CC5)cn4)c4c3CNC4=O)c[nH]c2c1` [I-23, 4-(6-methyl-1H-indol-3-yl)-7-[[5-(4-methylpiperazin-1-yl)-2-pyridyl]amino]isoindolin-1-one] it is 100 to 1000 nM; for `CN1CCN(c2ccc(Nc3ccc(-c4c[nH]c5ccncc45)c4c3C(=O)NC4)nc2)CC1` [I-24, 7-((5-(4-methylpiperazin-1-yl)pyridin-2-yl)amino)-4-(1H-pyrrolo[3,2-c]pyridin-3-yl)isoindolin-1-one] it is below 100 nM.
The same measure for `CN1CCN(c2ccc(Nc3ccc(-c4cccc5nccn45)c4c3C(=O)NC4)nc2)CC1` [I-25, 4-imidazo[1,2-a]pyridin-5-yl-7-[[5-(4-methylpiperazin-1-yl)-2-pyridyl]amino] isoindolin-1-one]: 100 to 1000 nM; for `CN1CCN(c2ccc(Nc3ccc(-c4c[nH]c5cccnc45)c4c3C(=O)NC4)nc2)CC1` [I-26, 7-((5-(4-methylpiperazin-1-yl)pyridin-2-yl)amino)-4-(1H-pyrrolo[3,2-b]pyridin-3-yl)isoindolin-1-one]: 100 to 1000 nM; for `Cc1[nH]c2ncccc2c1-c1ccc(Nc2ccc(N3CCN(C)CC3)cn2)c2c1CNC2=O` [I-27, 7-[[5-(4-methylpiperazin-1-yl)-2-pyridyl]amino]-4-(2-methyl-1H-pyrrolo[2,3-b]pyridin-3-yl)-isoindolin-1-one]: 100 to 1000 nM.
